The record followed here is PubChem BioAssay AID330 (DTP/NCI, 2004).

This assay has as its system P388 leukemia ip, CD2F1 mice, survival T/C. As to the kind of experiment: NCI In Vivo Anticancer Drug Screen. Data for tumor model P388 Leukemia (intraperitoneal) in CD2F1 (CDF1) mice. Particulars: endpoint: median survival time, higher = longer survival. The method, boiled down:
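Mice carrying the transplanted tumor received test compound or vehicle. Survival was recorded in each group, and the value is the treated-group measurement divided by that of the vehicle-treated control group.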

Setting [1] is: dose: 50.0 mg/kg/injection, schedule: Q01DX005 (ip), vehicle: saline.
Where [2] appears, read: dose: 100.0 mg/kg/injection, schedule: Q01DX005 (ip), vehicle: saline.
The mark [3] stands for this setting: dose: 200.0 mg/kg/injection, schedule: Q01DX005 (ip), vehicle: saline.
Setting [4] is: dose: 12.5 mg/kg/injection, schedule: Q01DX005 (ip), vehicle: Klucel (hydroxypropylcellulose) (HPC).
The mark [5] stands for this setting: dose: 50.0 mg/kg/injection, schedule: Q01DX009 (ip), vehicle: saline.
Where [6] appears, read: dose: 100.0 mg/kg/injection, schedule: Q01DX009 (ip), vehicle: saline.
Where [7] appears, read: dose: 200.0 mg/kg/injection, schedule: Q01DX009 (ip), vehicle: saline.
[8] abbreviates: dose: 50.0 mg/kg/injection, schedule: Q04DX003 (ip), vehicle: saline with Tween-80.
Setting [9] is: dose: 100.0 mg/kg/injection, schedule: Q04DX003 (ip), vehicle: saline with Tween-80.
Where [10] appears, read: dose: 200.0 mg/kg/injection, schedule: Q04DX003 (ip), vehicle: saline with Tween-80.

“And” between values parts separate entries of the source, which are not always exact repeats. Equal entries are not always repeated. Inconclusive results and toxic doses are left out. Square brackets hold non-standard residues; d marks the D form. Peptide text beside a SMILES is read from it. * marks the point of attachment. ξ: configuration not given here. ξE = NC(CCC(=O)O)C(=O)O; Cbz = O=C(OCc1ccccc1)*

Regarding `O=S(=O)(O)c1ccc(OCCCCCCCCOc2ccc(S(=O)(=O)O)cc2)cc1`, the T/C under setting [1] was 112 % of control, the T/C under setting [2] was 109 % of control and the T/C under setting [3] was 100 % of control.
On to `CC1=C(C)C(=O)OC1`, for which the T/C (dose: 60.0 mg/kg/injection, schedule: Q01DX005 (ip), vehicle: saline) was 108 % of control; the T/C (dose: 120.0 mg/kg/injection, schedule: Q01DX005 (ip), vehicle: saline) was 107 % of control; the T/C (dose: 240.0 mg/kg/injection, schedule: Q01DX005 (ip), vehicle: saline) is 101 % of control.
With `Cc1csc2c3ccccc3cc(=O)n12`, the T/C reads like this: under setting [4], 95 % of control; (dose: 25.0 mg/kg/injection, schedule: Q01DX005 (ip), vehicle: Klucel (hydroxypropylcellulose) (HPC)) 99 % of control; (dose: 50.0 mg/kg/injection, schedule: Q01DX005 (ip), vehicle: Klucel (hydroxypropylcellulose) (HPC)) 100 % of control; (dose: 100.0 mg/kg/injection, schedule: Q01DX001 (ip), vehicle: Klucel (hydroxypropylcellulose) (HPC)) 98 % of control.
As to `CC(C)(C)c1cc(C(=O)O)c(Br)c(C(=O)O)c1`, the T/C reads like this: under setting [5], 97 % of control; under setting [6], 102 % of control; under setting [7], 100 % of control.
In the case of `CCn1c(N)c(C(=S)NC)c(=O)n(CC)c1=O`, the T/C runs as follows: under setting [5], 100 % of control; under setting [6], 96 % of control.
On to `Cc1cc(C2CCCCC2)n(O)c(=O)c1`, for which the T/C runs as follows: (dose: 25.0 mg/kg/injection, schedule: Q01DX005 (ip), vehicle: saline) 100 % of control; under setting [1], 99 % of control; under setting [2], 106 % of control.
Take `Cc1cc2ncn(CC(=O)O)c2cc1C`: the T/C was 100 % of control under setting [8] and 90 % of control under setting [9].
As for `CC(=O)c1ccc([N+](=O)[O-])cc1Cl`, the T/C is 106 % of control (dose: 100.0 mg/kg/injection, schedule: Q04DX002 (ip), vehicle: saline with Tween-80); 106 % of control (dose: 200.0 mg/kg/injection, schedule: Q04DX002 (ip), vehicle: saline with Tween-80); 103 % of control (dose: 400.0 mg/kg/injection, schedule: Q04DX002 (ip), vehicle: saline with Tween-80).
For the compound `Cc1cc(NC(=O)c2ccc(C(=O)Nc3ccc(C4=NCCN4)c(C)c3)cc2)ccc1C1=NCCN1`, the T/C by setting is: under setting [9], 118 % of control; under setting [10], 104 % of control; (dose: 400.0 mg/kg/injection, schedule: Q04DX003 (ip), vehicle: saline with Tween-80) 104 % of control.
For `CC(=O)N1c2ccccc2C23CCN4CC5=CCOC(O)C(C5CC42)C13` (centres undefined), the T/C runs as follows: (dose: 20.0 mg/kg/injection, schedule: Q01DX009 (ip), vehicle: Klucel (hydroxypropylcellulose) (HPC)) 107 % of control; (dose: 40.0 mg/kg/injection, schedule: Q01DX009 (ip), vehicle: Klucel (hydroxypropylcellulose) (HPC)) 108 % of control; (dose: 80.0 mg/kg/injection, schedule: Q01DX009 (ip), vehicle: Klucel (hydroxypropylcellulose) (HPC)) 110 % of control; (dose: 160.0 mg/kg/injection, schedule: Q01DX009 (ip), vehicle: Klucel (hydroxypropylcellulose) (HPC)) 118 % of control.
Consider `COC(=O)/C=C1/Nc2ccccc2SC1C(=O)OC` (centres undefined), for which the T/C runs as follows: (dose: 50.0 mg/kg/injection, schedule: Q01DX005 (ip), vehicle: saline with Tween-80) 104 % of control; (dose: 100.0 mg/kg/injection, schedule: Q01DX005 (ip), vehicle: saline with Tween-80) 99 % of control; (dose: 200.0 mg/kg/injection, schedule: Q01DX005 (ip), vehicle: saline with Tween-80) 100 % of control.
Consider `COc1ccc(C(=O)C(CN(C)C)CN(C)C)c(OC)c1`, for which the T/C (dose: 7.5 mg/kg/injection, schedule: Q01DX005 (ip), vehicle: saline) is 121 % of control and the T/C (dose: 15.0 mg/kg/injection, schedule: Q01DX005 (ip), vehicle: saline) is 108 % of control.
As to `CC(C)(C)/[N+]([O-])=C/C=C(/C=[N+](\[O-])C(C)(C)C)S(=O)(=O)c1ccccc1`, the T/C (dose: 60.0 mg/kg/injection, schedule: Q01DX005 (ip), vehicle: saline with Tween-80) was 96 % of control; the T/C (dose: 120.0 mg/kg/injection, schedule: Q01DX005 (ip), vehicle: saline with Tween-80) was 90 % of control; the T/C (dose: 240.0 mg/kg/injection, schedule: Q01DX005 (ip), vehicle: saline with Tween-80) was 90 % of control.
Take `CCOC(=O)C(Cc1c[nH]c2ccccc12)NCCN` (centres undefined): the T/C under setting [5] was 99 % of control, the T/C under setting [6] was 108 % of control and the T/C under setting [7] was 86 % of control.
Turning to `O=C(O)C(Cc1ccc(O)cc1)NC(=O)C1CCCN1C(=O)OCc1ccccc1` (stereo not drawn) (Cbz-Pro-Tyr-OH; configuration not given here), the T/C runs as follows: under setting [1], 96 % of control; under setting [2], 96 % of control; under setting [3], 96 % of control.
For `COc1cc2cc(c1Cl)N(C)C(=O)CC(OC(=O)C(C)N(C)C(=O)C(C)C)C1(C)OC1C(C)C1CC(O)(NC(=O)O1)C(OC)/C=C/C=C(C)C2O` (centres undefined), the T/C by setting is: (dose: 0.02 mg/kg/injection, schedule: Q01DX009 (ip), vehicle: steriod suspending solution) 168 % of control; (dose: 0.05 mg/kg/injection, schedule: Q01DX009 (ip), vehicle: steriod suspending solution) 150 % of control; (dose: 0.1 mg/kg/injection, schedule: Q01DX009 (ip), vehicle: steriod suspending solution) 186 % of control; (dose: 0.2 mg/kg/injection, schedule: Q01DX009 (ip), vehicle: steriod suspending solution) 213 % of control; (dose: 32.0 micrograms/kg/injection, schedule: Q01DX009 (ip), vehicle: distilled water + alcohol) 159 % of control.
Take `CCN(CC)CC(CN(CC)CC)N(CCO)CC(C)C`: the T/C runs as follows: under setting [1], 93 % of control; under setting [2], 100 % of control.
Regarding `CC(C)Sc1nc(NC(=O)N(CCCl)N=O)cc(=O)[nH]1`, the T/C under setting [4] is 152 % of control.
`CN(C)S(=O)(=O)c1cccc(N)c1`: the T/C (dose: 25.0 mg/kg/injection, schedule: Q04DX003 (ip), vehicle: saline with Tween-80) is 93 % of control; the T/C under setting [8] was 95 % of control; the T/C under setting [9] was 100 % of control; the T/C under setting [10] was 94 % of control.
In the case of `NCC(=O)NCC(=O)NC(CCC(=O)O)C(=O)O` (stereo not drawn) (H-Gly-Gly-[ξE]-OH), the T/C reads like this: under setting [1], 100 % of control; under setting [2], 101 % of control; under setting [3], 104 % of control.
As for `CCOC(=O)C(Cc1c[nH]c2ccccc12)NC(=O)C1(O)C(O)C2(CC)C=CCN3CCC4(c5cc(C6(C(=O)OC)CC7CC(CC)CN(CCc8c6[nH]c6ccccc86)C7)c(OC)cc5N(C)C14)C32` (centres undefined), the T/C is 99 % of control (dose: 2.0 mg/kg/injection, schedule: Q01DX001 (ip), vehicle: saline); 118 % of control (dose: 4.0 mg/kg/injection, schedule: Q01DX001 (ip), vehicle: saline); 169 % of control (dose: 16.0 mg/kg/injection, schedule: Q01DX001 (ip), vehicle: saline); 179 % of control (dose: 32.0 mg/kg/injection, schedule: Q01DX001 (ip), vehicle: saline); 178 % of control (dose: 64.0 mg/kg/injection, schedule: Q01DX001 (ip), vehicle: saline).
In the case of `Cc1ccc(NC(=O)Oc2cc(C)c(Cl)cc2Br)cc1Cl`, the T/C was 100 % of control under setting [5], 107 % of control under setting [6] and 116 % of control under setting [7].
As to `COc1ccc(/C=C/CC2Cc3cc4c(cc3OC2c2ccc(OC)cc2)OCO4)cc1` (centres undefined), the T/C runs as follows: (dose: 3.75 mg/kg/injection, schedule: Q01DX005 (ip), vehicle: saline with Tween-80) 93 % of control; (dose: 7.5 mg/kg/injection, schedule: Q01DX005 (ip), vehicle: saline with Tween-80) 90 % of control.
For `CCN(CC)CCOc1ccc2c(c1)C(=O)c1cc(OCCN(CC)CC)ccc1-2`, the T/C is, setting by setting: (dose: 3.13 mg/kg/injection, schedule: Q01DX009 (ip), vehicle: saline with Tween-80) 109 % of control; (dose: 6.25 mg/kg/injection, schedule: Q01DX009 (ip), vehicle: saline with Tween-80) 109 % of control; (dose: 12.5 mg/kg/injection, schedule: Q01DX009 (ip), vehicle: saline with Tween-80) 109 % of control; (dose: 25.0 mg/kg/injection, schedule: Q01DX009 (ip), vehicle: saline with Tween-80) 100 % of control and 113 % of control; (dose: 25.0 mg/kg/injection, schedule: Q01DX009 (ip), vehicle: saline) 87 % of control; (dose: 50.0 mg/kg/injection, schedule: Q01DX009 (ip), vehicle: saline with Tween-80) 90 % of control. The T/C under setting [5] was 100 % of control and the T/C under setting [6] was 100 % of control.
As for `COC(=O)c1cc(=O)n(-c2ccc(OC)cc2)c(SC)n1`, the T/C under setting [9] is 100 % of control and the T/C under setting [10] was 91 % of control.
